Laboratory results taken from patent US20230265104A1, “NOVEL HETEROCYCLIC COMPOUNDS” (PRISM BIOLAB CO., LTD., priority 2020, published 2023).

Test system: PANC-1 (human pancreatic cancer-derived cell line)
Test: MTS assay on Panc-1 (human pancreas carcinoma cell line)
Type: cell-based
Conditions: 144 h; for IC50: PANC-1, MTS method, cell survival 6 days after exposure, 4-parameter logistic fit; for inhibition at 30 µM: PANC-1, MTS, 6 days, read-out: Growth inhibition (%) 30 μM
Protocol: Experimental Example: MTS Assay on Panc-1 (Human Pancreas Carcinoma Cell Line) cell line name: PANC-1 derived from: human pancreas glandular cancer purchased from: ATCC product code: CRL-1469 proliferation medium: D-MEM+10% FBS culture environment: 37° C., 5% CO2 seeding density: 5.0×10^5 cells/25 cm^2 solvent control substance: DMSO (HYBRI-MAX®, Sigma-Aldrich Corp.) test substance: Example compound (ID-1-ID-13) A DMSO solution of the test substance was prepared by serially diluting (common ratio 2) each test substance with DMSO.
A solvent control substance sample and a test substance sample were exposed to a human pancreatic cancer-derived cell line (PANC-1), and the survival rate of the cell 6 days later was measured by the MTS method. The measurement was performed 3 times and the average thereof was adopted. The survival rate of the cell in each test substance sample was calculated by the following formula 1 with the value at exposure of the solvent control substance sample as 100% survival rate. […]
survival rate (%)=100×absorbance of each test substance sample/absorbance of solvent control substance sample formula 1 Normalized values calculated by the following formula 2 from the absorbances of each sample at 492 nm and 630 nm and the absorbances of the blank were used as the absorbances in the above-mentioned formula 1. […]
normalized value (ABS492 nm-630 nm)=(ABSsa 492 nm-ABSsa 630 nm)−(ABSbl 492 nm-ABSbl 630 nm) ABSsa 492: absorbance of each sample at wavelength 492 nm ABSsa 630: absorbance of each sample at wavelength 630 nm ABSbl 492: absorbance of blank corresponding to each sample at wavelength 492 nm ABSbl 630: absorbance of blank corresponding to each sample at wavelength 630 nm formula 2 […]
The analysis was performed by using nplr package on R (The R Foundation for Statistical Computing) and estimating the logistic regression curve (4-parameter).

| SMILES | IC50 | inhibition at 30 µM |
| --- | --- | --- |
| CC(C)C[C@H]1ON(C(=O)/C=C/c2ccccn2)[C@H]2CN(C3CCN(C)CC3)C(=O)[C@H](CC(C)C)N2C1=O [ID-1, (3R, 6S, 9aS)-3,6-diisobutyl-8-(1-methylpiperidin-4-yl)-1-((E)-3-(pyridin-2-yl)acryloyl) tetrahydropyrazino[2,1-c] [1,2,4]oxadiazine-4,7(3H,6H)-dione] | 4100 nM |  |
| CC(C)C[C@H]1ON(C(=O)/C=C/c2nc3ccccc3s2)[C@H]2CN(C3CCN(C)CC3)C(=O)[C@H](CC(C)C)N2C1=O [ID-2, (3R, 6S, 9aS)-1-((E)-3-(benzo[d]thiazol-2-yl)acryloyl)-3,6-diisobutyl-8-(1-methylpiperidin-4-yl) tetrahydropyrazino[2,1-c] [1,2,4]oxadiazine-4,7(3H,6H)-dione] | 270 nM |  |
| CC(C)C[C@H]1ON(C(=O)/C=C/c2nc(C#N)cs2)[C@H]2CN(C3CCN(C)CC3)C(=O)[C@H](CC(C)C)N2C1=O [ID-3, 2-((E)-3-((3R, 6S, 9aS)-3,6-diisobutyl-8-(1-methylpiperidin-4-yl)-4,7-dioxohexahydropyrazino[2,1-c] [1,2,4]oxadiazin-1(6H)-yl)-3-oxoprop-1-en-1-yl)thiazole-4-carbonitrile] | 340 nM |  |
| CC(C)C[C@H]1ON(C(=O)/C=C/c2nc3ccccc3s2)[C@H]2CN([C@H]3CCN(CCCCO)C3)C(=O)[C@H](CC(C)(C)C)N2C1=O [ID-5, (3R,6S,9aS)-1-((E)-3-(benzo[d]thiazol-2-yl)acryloyl)-8-((S)-1-(4-hydroxybutyl)pyrrolidin-3-yl)-3-isobutyl-6-neopentyltetrahydropyrazino[2,1-c][1,2,4]oxadiazine-4,7(3H,6H)-dione] | 180 nM |  |
| CC(C)C[C@H]1ON(C(=O)/C=C/c2nc3ccccc3s2)[C@H]2CN([C@@H]3CCN(CCCCO)C3)C(=O)[C@H](CC(C)(C)C)N2C1=O [ID-6, (3R,6S,9aS)-1-((E)-3-(benzo[d]thiazol-2-yl)acryloyl)-8-((R)-1-(4-hydroxybutyl)pyrrolidin-3-yl)-3-isobutyl-6-neopentyltetrahydropyrazino[2,1-c][1,2,4]oxadiazine-4,7(3H,6H)-dione] | 130 nM |  |
| CC(C)C[C@H]1ON(C(=O)/C=C/c2nc3cc(O)ccc3s2)[C@H]2CN([C@H]3CCN(CCCCO)C3)C(=O)[C@H](CC(C)(C)C)N2C1=O [ID-7, (3R,6S,9aS)-1-((E)-3-(5-hydroxybenzo[d]thiazol-2-yl)acryloyl)-8-((S)-1-(4-hydroxybutyl)pyrrolidin-3-yl)-3-isobutyl-6-neopentyltetrahydropyrazino[2,1-c][1,2,4]oxadiazine-4,7(3H,6H)-dione] | 70 nM |  |
| CC(C)C[C@H]1ON(C(=O)/C=C/c2nc3cc(O)ccc3s2)[C@H]2CN(C3CN(CCCCO)C3)C(=O)[C@H](CC(C)(C)C)N2C1=O [ID-8, (3R,6S,9aS)-1-((E)-3-(5-hydroxybenzo[d]thiazol-2-yl)acryloyl)-8-(1-(4-hydroxybutyl)azetidin-3-yl)-3-isobutyl-6-neopentyltetrahydropyrazino[2,1-c][1,2,4]oxadiazine-4,7(3H,6H)-dione] | 63 nM |  |
| CC(C)C[C@H]1ON(C(=O)/C=C/c2nc(C#CCCCCO)cs2)[C@H]2CN([C@H]3CCN(CCCCO)C3)C(=O)[C@H](CC(C)(C)C)N2C1=O [ID-9, (3R,6S,9aS)-8-((S)-1-(4-hydroxybutyl)pyrrolidin-3-yl)-1-((E)-3-(4-(6-hydroxyhex-1-yn-1-yl)thiazol-2-yl)acryloyl)-3-isobutyl-6-neopentyltetrahydropyrazino[2,1-c][1,2,4]oxadiazine-4,7(3H,6H)-dione] | 99 nM |  |
| CC(C)C[C@H]1ON(C(=O)/C=C/c2nc(C#CCCCO)cs2)[C@H]2CN(C3CCN(C(C)C)CC3)C(=O)[C@H](CC(C)(C)C)N2C1=O [ID-10, (3R,6S,9aS)-1-((E)-3-(4-(5-hydroxypent-1-yn-1-yl)thiazol-2-yl)acryloyl)-3-isobutyl-8-(1-isopropylpiperidin-4-yl)-6-neopentyltetrahydropyrazino[2,1-c][1,2,4]oxadiazine-4,7(3H,6H)-dione] | 48 nM |  |
| CC(C)C[C@H]1ON(C(=O)/C=C/c2nc(C#CCCCCO)cs2)[C@H]2CN([C@@H]3CCN(CCCCO)C3)C(=O)[C@H](CC(C)(C)C)N2C1=O [ID-11, (3R,6S,9aS)-8-((R)-1-(4-hydroxybutyl)pyrrolidin-3-yl)-1-((E)-3-(4-(6-hydroxyhex-1-yn-1-yl)thiazol-2-yl)acryloyl)-3-isobutyl-6-neopentyltetrahydropyrazino[2,1-c][1,2,4]oxadiazine-4,7(3H,6H)-dione] | 140 nM |  |
| CC(C)C[C@H]1ON(C(=O)/C=C/c2nc3cc(O)ccc3s2)[C@H]2CN([C@@H]3CCN(CCCCO)C3)C(=O)[C@H](CC(C)(C)C)N2C1=O [ID-12, (3R,6S,9aS)-1-((E)-3-(5-hydroxybenzo[d]thiazol-2-yl)acryloyl)-8-((R)-1-(4-hydroxybutyl)pyrrolidin-3-yl)-3-isobutyl-6-neopentyltetrahydropyrazino[2,1-c][1,2,4]oxadiazine-4,7(3H,6H)-dione] | 60 nM |  |
| CC(C)C[C@H]1ON(C(=O)/C=C/c2nc(C#CCCCCCO)cs2)[C@H]2CN([C@@H]3CCN(CCCCO)C3)C(=O)[C@H](CC(C)(C)C)N2C1=O [ID-13, (3R,6S,9aS)-8-((R)-1-(4-hydroxybutyl)pyrrolidin-3-yl)-1-((E)-3-(4-(7-hydroxyhept-1-yn-1-yl)thiazol-2-yl)acryloyl)-3-isobutyl-6-neopentyltetrahydropyrazino[2,1-c][1,2,4]oxadiazine-4,7(3H,6H)-dione] | 140 nM |  |
| CC(C)C[C@H]1ON(C(=O)/C=C/c2ccccn2)[C@H]2CN(CCC(N)=O)C(=O)[C@H](CC(C)C)N2C1=O [ID-14, 3-((3R,6S,9aS)-3,6-diisobutyl-4,7-dioxo-1-((E)-3-(pyridin-2-yl)acryloyl)hexahydropyrazino[2,1-c][1,2,4]oxadiazin-8 (1H)-yl)propanamide] | 17800 nM |  |
| CC(C)C[C@H]1ON(C(=O)/C=C/c2ccccn2)[C@H]2CN(C3CCN(C(=O)c4ccccc4)CC3)C(=O)[C@H](CC(C)C)N2C1=O [ID-15, (3R,6S,9aS)-8-(1-benzoylpiperidin-4-yl)-3,6-diisobutyl-1-((E)-3-(pyridin-2-yl)acryloyl)tetrahydropyrazino[2,1-c][1,2,4]oxadiazine-4,7(3H,6H)-dione] | 5800 nM | 99.9% |
| CC(C)C[C@H]1ON(C(=O)/C=C/c2ccccn2)[C@H]2CN(C3CCNCC3)C(=O)[C@H](CC(C)C)N2C1=O [ID-16, (3R,6S,9aS)-3,6-diisobutyl-8-(piperidin-4-yl)-1-((E)-3-(pyridin-2-yl)acryloyl)tetrahydropyrazino[2,1-c][1,2,4]oxadiazine-4,7(3H,6H)-dione] | 4700 nM | 100% |
| CC(C)C[C@H]1ON(C(=O)/C=C/c2nccs2)[C@H]2CN(CCC(N)=O)C(=O)[C@H](CC(C)C)N2C1=O [ID-17, 3-((3R,6S,9aS)-3,6-diisobutyl-4,7-dioxo-1-((E)-3-(thiazol-2-yl)acryloyl)hexahydropyrazino[2,1-c][1,2,4]oxadiazin-8(1H)-yl)propanamide] | 11400 nM | 100% |
| CNC(=O)CCN1C[C@@H]2N(C(=O)/C=C/c3ccccn3)O[C@H](CC(C)C)C(=O)N2[C@@H](CC(C)C)C1=O [ID-18, 3-((3R,6S,9aS)-3,6-diisobutyl-4,7-dioxo-1-((E)-3-(pyridin-2-yl)acryloyl)hexahydropyrazino[2,1-c][1,2,4]oxadiazin-8 (1H)-yl)—N-methylpropanamide] | 15900 nM | 96.4% |
| CNCCCN1C[C@H](CC(C)C)N2C(=O)[C@@H](CC(C)C)ON(C(=O)/C=C/c3ccccn3)[C@H]2C1 [ID-19, (3R,6S,9aS)-3,6-diisobutyl-8-(3-(methylamino)propyl)-1-((E)-3-(pyridin-2-yl)acryloyl)hexahydropyrazino[2,1-c][1,2,4]oxadiazin-4(3H)-one] | 10200 nM | 99.7% |
| CC(C)C[C@H]1ON(C(=O)/C=C/c2ccc3ccccc3n2)[C@H]2CN(CCC(N)=O)C(=O)[C@H](CC(C)C)N2C1=O [ID-20, 3-((3R,6S,9aS)-3,6-diisobutyl-4,7-dioxo-1-((E)-3-(quinolin-2-yl)acryloyl)hexahydropyrazino[2,1-c][1,2,4]oxadiazin-8 (1H)-yl)propanamide] | 2400 nM | 100% |
| CC(C)C[C@H]1ON(C(=O)/C=C/c2ccccn2)[C@H]2CN(CCC(=O)N3CCNCC3)C(=O)[C@H](CC(C)C)N2C1=O [ID-21, (3R,6S,9aS)-3,6-diisobutyl-8-(3-oxo-3-(piperazin-1-yl)propyl)-1-((E)-3-(pyridin-2-yl)acryloyl)tetrahydropyrazino[2,1-c][1,2,4]oxadiazine-4,7 (3H, 6H)-dione] | 19800 nM | 99.5% |
